Assay results as given in patent publication US20220233563A1, “Methods of Treatments Based Upon Anthracycline Responsiveness” (The Board of Trustees of the Leland Stanford Junior …, priority 2019, published 2022).

Assays:
[1] = system: HCC1954 breast cancer cell line; conditions: unmodified HCC1954, ER-/HER2+, not TOP2A amplified; cited from earlier work
[2] = system: HCC1954 breast cancer cell line; test: Cell viability after drug treatment of HCC1954 cells with inducible shRNA knockdown of KAT6B; format: cell-based; conditions: three inducible shRNA constructs against KAT6B in HCC1954; FIG. 31
Description: A similar experiment was performed by knocking down KAT6B expression to evaluate the role of KAT6B expression in anthracycline sensitivity. Three inducible shRNA knockdown constructs were used to lower the levels of KAT6B protein in the HCC1954 breast cancer cell line.

[3] = system: HCC1954 breast cancer cell line; test: Cell viability after drug treatment of HCC1954 cells with inducible shRNA knockdown of KDM4B; format: cell-based; conditions: KDM4B knocked down four days, then drug for three days; normalized to DMSO vehicle-only controls; FIG. 26
Description: To functionally evaluate the role of KDM4B expression in anthracycline sensitivity, three inducible shRNA knockdown constructs were used to lower the levels of KDM4B protein in the HCC1954 breast cancer cell line (FIG. 24). […] The expression KDM4B was knocked down for four days, and then the cells were treated with either doxorubicin, etoposide (a non-anthracycline TOP2 inhibitor) or paclitaxel (a taxane commonly used to treat breast cancer that functions via tubulin inhibition) for three days, after which cell viability was measured (FIG. 25). All experiments were normalized to DMSO vehicle-only controls and were performed under both induced and non-induced conditions.

Row | SMILES | doxorubicin sensitivity of the HCC1954 cell line [1] | change in drug sensitivity (cell viability) upon knockdown of KAT6B [2] | change in drug sensitivity (cell viability) upon knockdown of KDM4B [3]
1 | COc1cccc2c1C(=O)c1c(O)c3c(c(O)c1C2=O)C[C@@](O)(C(=O)CO)C[C@@H]3O[C@H]1C[C@H](N)[C@H](O)[C@H](C)O1 [doxorubicin] | doxorubicin-sensitive | induced resistance | induced resistance
2 | COc1cc([C@@H]2c3cc4c(cc3[C@@H](O[C@@H]3O[C@@H]5CO[C@@H](C)O[C@H]5[C@H](O)[C@H]3O)[C@H]3COC(=O)[C@H]23)OCO4)cc(OC)c1O [etoposide] |  | induced resistance | induced resistance
3 | CC(=O)O[C@H]1C(=O)[C@@]2(C)[C@H]([C@H](OC(=O)c3ccccc3)[C@]3(O)C[C@H](OC(=O)[C@H](O)[C@@H](NC(=O)c4ccccc4)c4ccccc4)C(C)=C1C3(C)C)[C@]1(OC(C)=O)CO[C@@H]1C[C@@H]2O [paclitaxel] |  | remained sensitive | remained sensitive
